The nature of series [1]: Experiment 4: in vivo pharmacokinetic behavior, rapamycin level in blood. Set-up: species or system male Sprague-Dawley rats. The settings on record: rats, intravenous administration. The procedure: The in vivo pharmacokinetic behavior of the rapamycin-entrapping nanoparticle composition of Example 1 was evaluated. For animal experiment, male Sprague-Dawley rats weighing 210 to 250 g were used, and 0.3 ml of whole blood was taken from caudal vein every 5, 15 and 30 minutes, and 1, 2, 4, 8 and 24 hours after intravenous and subcutaneous injection of the dose of 5 mg/kg, on the basis of rapamycin. The collected whole blood was treated with the Protein Precipitation (PPT, Progress in Pharmaceutical and Biomedical Analysis, Volume 5, 2003, Pages 199-254) and then centrifuged to obtain 0.15 ml of clear supernatant which was analyzed to check the rapamycin concentration in blood by LC/MS/MS method.
The in vivo pharmacokinetic behavior of the rapamycin-entrapping nanoparticle composition of Example 2 was evaluated by means of the same method as in Experiment 1. However, the composition was administered via oral, intravenous or subcutaneous route in the dose of 10 mg/kg on the basis of rapamycin, and 0.3 ml of whole blood was taken from caudal vein every 15 and 30 minutes, and 1, 2, 4, 8, 24 and 48 hours after administration.

For series [2] the following is noted: cited from earlier work.
Where [3] appears, read: male, Sprague-Dawley, rat, whole blood, 10 mg/kg.

On to `CO[C@H]1C[C@@H]2CC[C@@H](C)[C@@](O)(O2)C(=O)C(=O)N2CCCC[C@H]2C(=O)O[C@H]([C@H](C)C[C@@H]2CC[C@@H](O)[C@H](OC)C2)CC(=O)[C@H](C)/C=C(\C)[C@@H](O)[C@@H](OC)C(=O)[C@H](C)C[C@H](C)/C=C/C=C/C=C/1C` [rapamycin, Rapamycin], for which the AUC(0-t) in series [1] (male, Sprague-Dawley, rat, whole blood, 10 mg/kg on the basis of rapamycin) worked out at 5370 ng·h/mL. Also, in series [1] (setting [3]), the total exposure AUC(0-inf) worked out at 5600 ng·h/mL, the peak concentration (Cmax) is 2890 ng/mL, the Tmax came out at 0.25 h and the half-life was 10.5 h. This compound also returned a F in series [1] (10 mg/kg, free sirolimus intravenous = 100) of 100%. Further, the solubility in water in series [2] is 1 to 2 µg/mL.

By AUC(0-t) is commonly meant exposure summed from dosing to a finite time, without extrapolation to infinity. By AUC(0-inf) is commonly meant total exposure, with the tail of the curve extrapolated. The low end stands for less exposure, the high end for more exposure. The Cmax is the highest concentration seen after dosing. By Tmax is commonly meant the time at which the peak concentration occurs. Usually half-life stands for the time needed for the level to fall by half in the phase considered. Lower therefore signals fast loss.

Source of the values: US9173841B2, “Polymer nanoparticle injection formulation composition containing rapamycin with improved water solubility, preparation method thereof, and anticancer composition for combined use with radiotherapy” (SAMYANG BIOPHARMACEUTICALS CORPORATION, priority 2009, dated 2015).
